From ChEMBL document CHEMBL1201862, “PubChem BioAssay data set” (2004)
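Grown in 96-well plates, cells were treated for 48 hours with each compound at five concentrations. Insufficient inhibition: endpoint recorded as highest concentration tested. GI50: concentration for 50% inhibition of growth.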 The source made the active and inactive calls. No stated cut-off is given here; in the data, active = GI50 up to about 1.1 µM and inactive = higher.

Columns and labels:
Assay in all cases: NCI anticancer screen, dose series, 48 h
HCT-15 = system: HCT-15
UACC-257 = system: UACC-257
T47D = system: T47D
Malme-3M = system: Malme-3M
MDA-N = system: MDA-N
OVCAR-5 = system: OVCAR-5
A549 = system: A549
SK-MEL-2 = system: SK-MEL-2
MDA-MB-435 = system: MDA-MB-435
786-0 = system: 786-0
UACC-62 = system: UACC-62
IGROV-1 = system: IGROV-1
SK-OV-3 = system: SK-OV-3
MDA-MB-231 = system: MDA-MB-231
EKVX = system: EKVX
HT-29 = system: HT-29
SK-MEL-28 = system: SK-MEL-28
RPMI-8226 = system: RPMI-8226
U-251 = system: U-251
SW-620 = system: SW-620

Measured: GI50

C[C@@H](c1ccccc1)N1C[C@@H](c2ccc3c(c2)OCO3)[C@@H]2C(=O)CCC[C@@H]21
inactive: UACC-257 50.2 µM | T47D 37.3 µM | Malme-3M 31.3 µM | MDA-N > 100 µM | OVCAR-5 > 100 µM | A549 57.9 µM | SK-MEL-2 41 µM | MDA-MB-435 67.8 µM | 786-0 75.2 µM | UACC-62 25.5 µM | IGROV-1 41.1 µM | SK-OV-3 > 100 µM | MDA-MB-231 63.8 µM | EKVX 69.3 µM | HT-29 98.9 µM | SK-MEL-28 28.6 µM | RPMI-8226 38.1 µM | U-251 66.5 µM
61.2 µM: HCT-15

Cc1c(C)c(S(=O)(=O)N(CCCCCN)OCCCN)c(C)c2c1OC(C)(C)CC2
18.6 µM: HCT-15
inactive: UACC-257 13.8 µM | T47D 16.6 µM | Malme-3M 14.3 µM | MDA-N 4.73 µM | OVCAR-5 24.8 µM | A549 16 µM | SK-MEL-2 4.75 µM | SW-620 7.8 µM | MDA-MB-435 5.82 µM | 786-0 6.62 µM | UACC-62 12.9 µM | IGROV-1 2.82 µM | SK-OV-3 13.4 µM | MDA-MB-231 5.89 µM | EKVX 11.4 µM | HT-29 13 µM | SK-MEL-28 18.9 µM | RPMI-8226 3.6 µM | U-251 5.64 µM

COc1ccc2c(c1)OCC1Cc3cccc(OC)c3OC21 (centres undefined)
48 µM: HCT-15
inactive: UACC-257 36.1 µM | T47D 30.1 µM | Malme-3M 70.8 µM | MDA-N 50.5 µM | OVCAR-5 > 100 µM | A549 70 µM | SK-MEL-2 51.3 µM | SW-620 60.3 µM | MDA-MB-435 28.7 µM | 786-0 > 100 µM | UACC-62 71.1 µM | IGROV-1 66.7 µM | SK-OV-3 > 100 µM | MDA-MB-231 60.7 µM | EKVX 52.2 µM | HT-29 72.8 µM | RPMI-8226 36.9 µM | U-251 > 100 µM

O=c1oc2cccnc2n1CCN1CCN(c2ccc(Oc3ccccc3)cc2)CC1
90.8 µM: HCT-15
inactive: UACC-257 21.9 µM | T47D 10.4 µM | Malme-3M 41.6 µM | MDA-N 79.6 µM | OVCAR-5 > 100 µM | A549 > 100 µM | SK-MEL-2 > 100 µM | SW-620 > 100 µM | MDA-MB-435 63.2 µM | 786-0 20 µM | IGROV-1 > 100 µM | SK-OV-3 > 100 µM | MDA-MB-231 > 100 µM | EKVX > 100 µM | HT-29 7.82 µM | SK-MEL-28 > 100 µM | RPMI-8226 8.47 µM | U-251 56.9 µM

CC1CC(C)CC(NC2=NCCO2)C1 (centres undefined)
> 100 µM: HCT-15
inactive: UACC-257 > 100 µM | T47D > 100 µM | Malme-3M > 100 µM | MDA-N > 100 µM | OVCAR-5 > 100 µM | A549 > 100 µM | SK-MEL-2 > 100 µM | SW-620 > 100 µM | MDA-MB-435 > 100 µM | 786-0 > 100 µM | UACC-62 > 100 µM | IGROV-1 > 100 µM | MDA-MB-231 > 100 µM | EKVX > 100 µM | HT-29 > 100 µM | SK-MEL-28 > 100 µM | RPMI-8226 > 100 µM | U-251 > 100 µM

CS(=O)(=O)Nc1ccc(N2Cc3c[nH]c4ccc5nccc2c5c34)cc1
inactive: UACC-257 14.5 µM | T47D 3.5 µM | Malme-3M 4.54 µM | MDA-N 15.7 µM | OVCAR-5 22.8 µM | A549 33.4 µM | SK-MEL-2 16.4 µM | SW-620 15 µM | MDA-MB-435 15.5 µM | 786-0 14.3 µM | UACC-62 16.3 µM | IGROV-1 22.2 µM | MDA-MB-231 13.6 µM | EKVX 44.7 µM | HT-29 25.5 µM | SK-MEL-28 18.9 µM | RPMI-8226 20.3 µM | U-251 15.4 µM
> 100 µM: HCT-15

COC(=O)[C@@H]1CN(C(C)=O)C(=O)N1C(=O)OCc1ccccc1
inactive: UACC-257 > 100 µM | T47D > 100 µM | Malme-3M > 100 µM | MDA-N > 100 µM | OVCAR-5 > 100 µM | A549 > 100 µM | SK-MEL-2 > 100 µM | SW-620 > 100 µM | MDA-MB-435 > 100 µM | 786-0 > 100 µM | IGROV-1 > 100 µM | SK-OV-3 > 100 µM | MDA-MB-231 > 100 µM | EKVX > 100 µM | HT-29 > 100 µM | SK-MEL-28 > 100 µM | RPMI-8226 > 100 µM | U-251 > 100 µM
> 100 µM: HCT-15
